Experimental data published in PubChem BioAssay (NCI).
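Results reflect a 48-hour exposure of cells in 96-well plates to compound at five concentrations. Definition used: TGI = concentration required for complete inhibition of growth.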

Columns and labels:
Experiment in all cases: inhibition of tumour cell growth, NCI panel, 48 h
NCI-H460 lung = tested on: NCI-H460 lung
HCC-2998 colon = tested on: HCC-2998 colon
OVCAR-8 ovarian = tested on: OVCAR-8 ovarian
MCF7 breast = tested on: MCF7 breast
K-562 leukemia = tested on: K-562 leukemia
SNB-19 CNS = tested on: SNB-19 CNS
HCT-116 colon = tested on: HCT-116 colon
KM12 colon = tested on: KM12 colon
HOP-92 NSCLC = tested on: HOP-92 NSCLC
HT29 colon = tested on: HT29 colon
SK-MEL-28 melanoma = tested on: SK-MEL-28 melanoma
ACHN renal = tested on: ACHN renal
HCT-15 colon = tested on: HCT-15 colon
BT-549 breast = tested on: BT-549 breast
HS 578T breast = tested on: HS 578T breast
NCI-H226 lung = tested on: NCI-H226 lung
NCI-H522 lung = tested on: NCI-H522 lung
U251 CNS = tested on: U251 CNS
LOX IMVI melanoma = tested on: LOX IMVI melanoma
TK-10 renal = tested on: TK-10 renal
SK-MEL-2 melanoma = tested on: SK-MEL-2 melanoma
SK-OV-3 ovarian = tested on: SK-OV-3 ovarian
A498 renal = tested on: A498 renal
786-0 renal = tested on: 786-0 renal
NCI/ADR-RES ovarian = tested on: NCI/ADR-RES ovarian
DU-145 prostate = tested on: DU-145 prostate
CAKI-1 renal = tested on: CAKI-1 renal
COLO 205 colon = tested on: COLO 205 colon
SK-MEL-5 melanoma = tested on: SK-MEL-5 melanoma
SW-620 colon = tested on: SW-620 colon
MDA-N = tested on: MDA-N
PC-3 prostate = tested on: PC-3 prostate
SF-539 CNS = tested on: SF-539 CNS
MDA-MB-435 = tested on: MDA-MB-435
UACC-257 melanoma = tested on: UACC-257 melanoma
RXF 393 renal = tested on: RXF 393 renal
EKVX NSCLC = tested on: EKVX NSCLC
SR leukemia = tested on: SR leukemia
T-47D breast = tested on: T-47D breast
SF-268 CNS = tested on: SF-268 CNS
OVCAR-4 ovarian = tested on: OVCAR-4 ovarian
IGROV1 ovarian = tested on: IGROV1 ovarian
OVCAR-3 ovarian = tested on: OVCAR-3 ovarian
MDA-MB-231 breast = tested on: MDA-MB-231 breast
MOLT-4 leukemia = tested on: MOLT-4 leukemia
HL-60(TB) leukemia = tested on: HL-60(TB) leukemia
UO-31 renal = tested on: UO-31 renal
HOP-62 NSCLC = tested on: HOP-62 NSCLC
CCRF-CEM leukemia = tested on: CCRF-CEM leukemia
M14 melanoma = tested on: M14 melanoma
NCI-H23 lung = tested on: NCI-H23 lung
SNB-75 CNS = tested on: SNB-75 CNS
MALME-3M melanoma = tested on: MALME-3M melanoma
OVCAR-5 ovarian = tested on: OVCAR-5 ovarian
UACC-62 melanoma = tested on: UACC-62 melanoma
RPMI-8226 leukemia = tested on: RPMI-8226 leukemia
SN12C renal = tested on: SN12C renal
A549 NSCLC = tested on: A549 NSCLC
SF-295 CNS = tested on: SF-295 CNS

Q: `C/C=C(\C)C(O)C(C)C(O)C/C=C(C)/C=C(\C)C/C(C)=C/C/C=C(\C)C(O)C(C)c1ccc(CCC)c(=O)o1` (centres undefined) was tested. Which TGI (NCI-H460 lung) did it give?
A: The TGI was 22.7 µM.

Q: And the TGI (HCC-2998 colon)?
A: The TGI was 26.4 µM.

Q: And the TGI (OVCAR-8 ovarian)?
A: The TGI was 48.7 µM.

Q: What about the TGI (MCF7 breast) of the same molecule?
A: The TGI was 22.9 µM.

Q: And the TGI (K-562 leukemia)?
A: Its TGI is greater than 100 µM.

Q: And the TGI (SNB-19 CNS)?
A: Its TGI is 42.3 µM.

Q: What about the TGI (HCT-116 colon) of the same molecule?
A: Its TGI is 19.7 µM.

Q: And the TGI (KM12 colon)?
A: Its TGI is 23.8 µM.

Q: What about the TGI (HOP-92 NSCLC) of the same molecule?
A: The TGI was 44 µM.

Q: And the TGI (HT29 colon)?
A: The TGI was 3.32 µM.

Q: What about the TGI (SK-MEL-28 melanoma) of the same molecule?
A: The TGI was 32.3 µM.

Q: And the TGI (ACHN renal)?
A: Its TGI is 53.2 µM.

Q: What about the TGI (HCT-15 colon) of the same molecule?
A: Its TGI is 15.3 µM.

Q: What about the TGI (BT-549 breast) of the same molecule?
A: Its TGI is 25 µM.

Q: And the TGI (HS 578T breast)?
A: Its TGI is 37.9 µM.

Q: And the TGI (NCI-H226 lung)?
A: The TGI was 55.6 µM.

Q: And the TGI (NCI-H522 lung)?
A: Its TGI is 17.2 µM.

Q: What about the TGI (U251 CNS) of the same molecule?
A: Its TGI is 24.1 µM.

Q: What about the TGI (LOX IMVI melanoma) of the same molecule?
A: Its TGI is 28.3 µM.

Q: And the TGI (TK-10 renal)?
A: The TGI was 71.8 µM.

Q: And the TGI (SK-MEL-2 melanoma)?
A: Its TGI is 45 µM.

Q: What about the TGI (SK-OV-3 ovarian) of the same molecule?
A: Its TGI is 94.5 µM.

Q: And the TGI (A498 renal)?
A: Its TGI is 50.6 µM.

Q: What about the TGI (786-0 renal) of the same molecule?
A: Its TGI is 55.7 µM.

Q: What about the TGI (NCI/ADR-RES ovarian) of the same molecule?
A: The TGI was 29.7 µM.

Q: What about the TGI (DU-145 prostate) of the same molecule?
A: The TGI was 91.7 µM.

Q: And the TGI (CAKI-1 renal)?
A: Its TGI is 31.8 µM.

Q: And the TGI (COLO 205 colon)?
A: Its TGI is 16.8 µM.

Q: And the TGI (SK-MEL-5 melanoma)?
A: Its TGI is 14.3 µM.

Q: What about the TGI (SW-620 colon) of the same molecule?
A: Its TGI is 28.4 µM.

Q: And the TGI (MDA-N)?
A: The TGI was 22.8 µM.

Q: And the TGI (PC-3 prostate)?
A: The TGI was 21.3 µM.

Q: And the TGI (SF-539 CNS)?
A: The TGI was 28.2 µM.

Q: What about the TGI (MDA-MB-435) of the same molecule?
A: Its TGI is 22.7 µM.

Q: What about the TGI (UACC-257 melanoma) of the same molecule?
A: Its TGI is 15.2 µM.

Q: What about the TGI (RXF 393 renal) of the same molecule?
A: The TGI was 77.3 µM.

Q: And the TGI (EKVX NSCLC)?
A: Its TGI is greater than 100 µM.

Q: What about the TGI (SR leukemia) of the same molecule?
A: The TGI was greater than 100 µM.

Q: What about the TGI (T-47D breast) of the same molecule?
A: Its TGI is 65.4 µM.

Q: What about the TGI (SF-268 CNS) of the same molecule?
A: The TGI was 37.5 µM.

Q: And the TGI (OVCAR-4 ovarian)?
A: The TGI was 65.4 µM.

Q: And the TGI (IGROV1 ovarian)?
A: Its TGI is 32.8 µM.

Q: And the TGI (OVCAR-3 ovarian)?
A: Its TGI is 27.8 µM.

Q: What about the TGI (MDA-MB-231 breast) of the same molecule?
A: Its TGI is 26.4 µM.

Q: What about the TGI (MOLT-4 leukemia) of the same molecule?
A: The TGI was greater than 100 µM.

Q: And the TGI (HL-60(TB) leukemia)?
A: The TGI was greater than 100 µM.

Q: What about the TGI (UO-31 renal) of the same molecule?
A: Its TGI is 21 µM.

Q: What about the TGI (HOP-62 NSCLC) of the same molecule?
A: The TGI was 30.4 µM.

Q: What about the TGI (CCRF-CEM leukemia) of the same molecule?
A: Its TGI is greater than 100 µM.

Q: And the TGI (M14 melanoma)?
A: Its TGI is 28.4 µM.

Q: And the TGI (NCI-H23 lung)?
A: Its TGI is 26.1 µM.

Q: And the TGI (SNB-75 CNS)?
A: Its TGI is 25.2 µM.

Q: What about the TGI (MALME-3M melanoma) of the same molecule?
A: The TGI was 27.1 µM.

Q: And the TGI (OVCAR-5 ovarian)?
A: The TGI was 37.9 µM.

Q: What about the TGI (UACC-62 melanoma) of the same molecule?
A: Its TGI is 26.1 µM.

Q: What about the TGI (RPMI-8226 leukemia) of the same molecule?
A: Its TGI is greater than 100 µM.

Q: What about the TGI (SN12C renal) of the same molecule?
A: Its TGI is 46.2 µM.

Q: What about the TGI (A549 NSCLC) of the same molecule?
A: The TGI was 27.8 µM.

Q: What about the TGI (SF-295 CNS) of the same molecule?
A: Its TGI is 16.9 µM.

Q: What does the source list for `O=C(c1ccccc1)c1ccc2[nH]c(-c3c(Cl)c(Cl)c(Cl)c(Cl)c3C(=O)N/N=C/c3cccc(Oc4ccccc4)c3)nc2c1`?
A: TGI (OVCAR-8 ovarian): > 100 µM; TGI (MCF7 breast): > 100 µM; TGI (K-562 leukemia): > 100 µM; TGI (SNB-19 CNS): > 100 µM; TGI (HCT-116 colon): > 100 µM; TGI (KM12 colon): > 100 µM; TGI (HOP-92 NSCLC): > 100 µM; TGI (HT29 colon): > 100 µM; TGI (SK-MEL-28 melanoma): > 100 µM; TGI (ACHN renal): > 100 µM; TGI (HCT-15 colon): > 100 µM; TGI (BT-549 breast): > 100 µM; TGI (HS 578T breast): > 100 µM; TGI (NCI-H226 lung): > 100 µM; TGI (NCI-H522 lung): > 100 µM; TGI (U251 CNS): > 100 µM; TGI (LOX IMVI melanoma): > 100 µM; TGI (TK-10 renal): > 100 µM; TGI (SK-MEL-2 melanoma): > 100 µM; TGI (SK-OV-3 ovarian): > 100 µM; TGI (786-0 renal): > 100 µM; TGI (NCI/ADR-RES ovarian): > 100 µM; TGI (DU-145 prostate): > 100 µM; TGI (CAKI-1 renal): > 100 µM; TGI (COLO 205 colon): > 100 µM; TGI (SK-MEL-5 melanoma): > 100 µM; TGI (SW-620 colon): > 100 µM; TGI (MDA-N): > 100 µM; TGI (PC-3 prostate): > 100 µM; TGI (SF-539 CNS): > 100 µM; TGI (MDA-MB-435): > 100 µM; TGI (UACC-257 melanoma): > 100 µM; TGI (RXF 393 renal): > 100 µM; TGI (EKVX NSCLC): > 100 µM; TGI (SR leukemia): > 100 µM; TGI (T-47D breast): > 100 µM; TGI (SF-268 CNS): > 100 µM; TGI (OVCAR-4 ovarian): > 100 µM; TGI (IGROV1 ovarian): > 100 µM; TGI (OVCAR-3 ovarian): > 100 µM; TGI (MDA-MB-231 breast): > 100 µM; TGI (MOLT-4 leukemia): > 100 µM; TGI (HL-60(TB) leukemia): > 100 µM; TGI (UO-31 renal): > 100 µM; TGI (HOP-62 NSCLC): > 100 µM; TGI (CCRF-CEM leukemia): > 100 µM; TGI (M14 melanoma): > 100 µM; TGI (NCI-H23 lung): > 100 µM; TGI (SNB-75 CNS): > 100 µM; TGI (MALME-3M melanoma): > 100 µM; TGI (OVCAR-5 ovarian): > 100 µM; TGI (RPMI-8226 leukemia): > 100 µM; TGI (SN12C renal): > 100 µM; TGI (A549 NSCLC): > 100 µM; TGI (SF-295 CNS): > 100 µM
